Where a name gives a salt, the structure may show the parent alone. Some results are limits rather than exact numbers.

From US9024027B2, “Derivatives of 1-phenyl-2-pyridinyl alkyl alcohols as phosphodiesterase inhibitors” (Chiesi Farmaceutici S.p.A., priority 2011, dated 2015) come the findings set out here.

Test system in one data set: not given
Test: not given
Particulars: human, microsomes.
For `O=C(Cn1c(=O)oc2ccccc21)O[C@@H](Cc1c(Cl)c[n+]([O-])cc1Cl)c1ccc(OC(F)F)c(OCC2CC2)c1` [Compound 24], the “intrinsic Clearance” value is on record as more than 15 mL/min/g.

A further data set concerns LPS-induced TNF-α release in peripheral blood mononuclear cells (PBMCs). Description: In vitro determination of PDE4 inhibitory activity in the PBMCs assay (LPS-induced TNF-α release). It counts as cell-based. Particulars: PBMC; human PBMCs, LPS 3 ng/ml, 18 hours; read-out: PDE4 inhibition (IC50, 50% inhibition of LPS-induced TNF-α release). The protocol: The assay, which is based on the known inhibitory activity exerted by PDE4 inhibitors on the lipopolyshaccarides (LPS)-induced tumour necrosis factor-alpha (TNF-α release in peripheral blood mononuclear cells (PBMCs), was performed according to a method previously described (Hatzelmann A et al., J. Pharmacol. Exp. Ther., 2001; 297:267-279; and Draheim R et al., J. Pharmacol. Exp. Ther., 2004; 308:555-563, both of which are incorporated herein by reference in their entireties. Cryopreserved human PBMCs, (100 μl/well) were incubated in 96-well plates (10^5 cells/well), for 30 minutes, in the presence or absence (50 microl) of the test compounds whose concentrations ranged from 10^−12 M to 10^−6 M or from 10^−13 M to 10^−7 M. Subsequently, LPS (3 ng/ml) was added. After 18 hours of incubation at 37° C. in a humidified incubator under an atmosphere of 95% air and 5% CO2, culture medium was collected and TNF-α measured by ELISA.
The results of the tested compounds, representatives of the invention, expressed as mean±95% confidence limits of the molar concentration of the test compound producing 50% inhibition of LPS-induced TNF-α release (IC50) are shown in the following Table: […]
For orientation: IC50 means the concentration needed to halve the response being measured. Regarding `CS(=O)(=O)N(CCN1CCOCC1)c1ccc2c(c1)C(=O)N(CC(=O)O[C@@H](Cc1c(Cl)c[n+]([O-])cc1Cl)c1ccc(OC(F)F)c(OCC3CC3)c1)C2=O` [Compound 182, (S)-3,5-dichloro-4-(2-(3-(cyclopropylmethoxy)-4-(difluoromethoxy)phenyl)-2-(2-(5-(N-(2-morpholinoethyl)methylsulfonamido)-1,3-dioxoisoindolin-2-yl)acetoxy)ethyl)pyridine 1-oxide 2,2,2 trifluoroacetic acid salt], the IC50 was less than 1 nM.

Regarding `CS(=O)(=O)N(CCN1CCCC1)c1ccc2c(c1)C(=O)N(CC(=O)O[C@@H](Cc1c(Cl)c[n+]([O-])cc1Cl)c1ccc(OC(F)F)c(OCC3CC3)c1)C2=O` [Compound 183], the half-inhibitory concentration (IC50) is less than 1 nM. Turning to `CS(=O)(=O)N(Cc1cccnc1)c1ccc2c(c1)C(=O)N(CC(=O)O[C@@H](Cc1c(Cl)c[n+]([O-])cc1Cl)c1ccc(OC(F)F)c(OCC3CC3)c1)C2=O` [Compound 186], the half-inhibitory concentration (IC50) was less than 1 nM. As to `CS(=O)(=O)N(CCN1CCCCC1)c1ccc2c(c1)C(=O)N(CC(=O)O[C@@H](Cc1c(Cl)c[n+]([O-])cc1Cl)c1ccc(OC(F)F)c(OCC3CC3)c1)C2=O` [Compound 189, (S)-3,5-dichloro-4-(2-(3-(cyclopropylmethoxy)-4-(difluoromethoxy)phenyl)-2-(2-(1,3-dioxo-5-(N-(2-(piperidin-1-yl)ethyl)methylsulfonamido)isoindolin-2-yl)acetoxy)ethyl)pyridine 1-oxide], the IC50 is more than 10 nM. On to `CS(=O)(=O)N(Cc1ccccn1)c1ccc2c(c1)C(=O)N(CC(=O)O[C@@H](Cc1c(Cl)c[n+]([O-])cc1Cl)c1ccc(OC(F)F)c(OCC3CC3)c1)C2=O` [Compound 190], for which the IC50 was less than 1 nM. `Cc1noc(C)c1CN(c1ccc2c(c1)C(=O)N(CC(=O)O[C@@H](Cc1c(Cl)c[n+]([O-])cc1Cl)c1ccc(OC(F)F)c(OCC3CC3)c1)C2=O)S(C)(=O)=O` [Compound 191]: the IC50 is less than 1 nM. As to `COc1ccnc(CN(c2ccc3c(c2)C(=O)N(CC(=O)O[C@@H](Cc2c(Cl)c[n+]([O-])cc2Cl)c2ccc(OC(F)F)c(OCC4CC4)c2)C3=O)S(C)(=O)=O)c1` [Compound 194], the IC50 was in the range of 1 to 10 nM. As for `CN1CCN(CCN(c2ccc3c(c2)C(=O)N(CC(=O)O[C@@H](Cc2c(Cl)c[n+]([O-])cc2Cl)c2ccc(OC(F)F)c(OCC4CC4)c2)C3=O)S(C)(=O)=O)CC1` [Compound 213, (S)-3,5-Dichloro-4-(2-(3-(cyclopropylmethoxy)-4-(difluoromethoxy)-phenyl)-2-(2-(5-(N-(2-(4-methylpiperazin-1-yl)ethyl)methylsulfonamido)-1,3-dioxoisoindolin-2-yl)acetoxy)ethyl)pyridine 1-oxide], the IC50 was less than 1 nM. As to `CC(=O)N1CCN(CCN(c2ccc3c(c2)C(=O)N(CC(=O)O[C@@H](Cc2c(Cl)c[n+]([O-])cc2Cl)c2ccc(OC(F)F)c(OCC4CC4)c2)C3=O)S(C)(=O)=O)CC1` [Compound 214], the IC50 is less than 1 nM. On the same count and under the same terms, as for `CS(=O)(=O)N(CCN1CCSCC1)c1ccc2c(c1)C(=O)N(CC(=O)O[C@@H](Cc1c(Cl)c[n+]([O-])cc1Cl)c1ccc(OC(F)F)c(OCC3CC3)c1)C2=O` [Compound 215], the figure is less than 1 nM.

On to `CS(=O)(=O)N(CCN1CCOCC1)c1ccc2c(ccn2CC(=O)O[C@@H](Cc2c(Cl)c[n+]([O-])cc2Cl)c2ccc(OC(F)F)c(OCC3CC3)c2)c1` [Compound 230, (S)-3,5-dichloro-4-(2-(3-(cyclopropylmethoxy)-4-(difluoromethoxy)phenyl)-2-(2-(5-(N-(2-morpholinoethyl)methylsulfonamido)-1H-indol-1-yl)acetoxy)ethyl)pyridine 1-oxide hydrochloride], for which the IC50 was less than 1 nM. As for `CS(=O)(=O)N(CCN1CCOCC1)c1cccc2c1ccn2CC(=O)O[C@@H](Cc1c(Cl)c[n+]([O-])cc1Cl)c1ccc(OC(F)F)c(OCC2CC2)c1` [Compound 233, (S)-3,5-dichloro-4-(2-(3-(cyclopropylmethoxy)-4-(difluoromethoxy)phenyl)-2-(2-(4-(N-(2-morpholinoethyl)methylsulfonamido)-1H-indol-1-yl)acetoxy)ethyl)pyridine 1-oxide], the half-maximal inhibitory concentration (IC50) was 1 to 10 nM. Take `CS(=O)(=O)N(CCN1CCOCC1)c1ccc2c(c1)C(=O)C(=O)N2CC(=O)O[C@@H](Cc1c(Cl)c[n+]([O-])cc1Cl)c1ccc(OC(F)F)c(OCC2CC2)c1` [Compound 240, (S)-3,5-dichloro-4-(2-(3-(cyclopropylmethoxy)-4-(difluoromethoxy)phenyl)-2-(2-(5-(N-(2-morpholinoethyl)methylsulfonamido)-2,3-dioxoindolin-1-yl)acetoxy)ethyl)pyridine 1-oxide]: the concentration for half-maximal inhibition (IC50) is less than 1 nM. Take `CS(=O)(=O)N(CCN1CCOCC1)c1ccc2c(c1)CC(=O)N2CC(=O)O[C@@H](Cc1c(Cl)c[n+]([O-])cc1Cl)c1ccc(OC(F)F)c(OCC2CC2)c1` [Compound 243, (S)-3,5-dichloro-4-(2-(3-(cyclopropylmethoxy)-4-(difluoromethoxy)phenyl)-2-(2-(5-(N-(2-morpholinoethyl)methylsulfonamido)-2-oxoindolin-1-yl)acetoxy)ethyl)pyridine 1-oxide]: the IC50 is less than 1 nM.

In the case of `CS(=O)(=O)N(CCN1CCOCC1)Cc1ccc2c(c1)C(=O)N(CC(=O)O[C@@H](Cc1c(Cl)c[n+]([O-])cc1Cl)c1ccc(OC(F)F)c(OCC3CC3)c1)C2=O` [Compound 258, (S)-3,5-dichloro-4-(2-(3-(cyclopropylmethoxy)-4-(difluoromethoxy)phenyl)-2-(2-(5-((N-(2-morpholinoethyl)methylsulfonamido)methyl)-1,3-dioxoisoindolin-2-yl)acetoxy)ethyl)pyridine 1-oxide], the IC50 is less than 1 nM.

Consider `O=C(CN1C(=O)c2ccccc2C1=O)O[C@@H](Cc1c(Cl)c[n+]([O-])cc1Cl)c1ccc(OC(F)F)c(OC2CCOC2)c1` (stereo partly drawn) [Compound 261, 3,5-dichloro-4-((2S)-2-(4-(difluoromethoxy)-3-(tetrahydrofuran-3-yloxy)phenyl)-2-(2-(1,3-dioxoisoindolin-2-yl)acetoxy)-ethyl)pyridine 1-oxide], for which the IC50 was less than 1 nM. On to `O=C(CN1C(=O)Cc2ccccc2C1=O)O[C@@H](Cc1c(Cl)c[n+]([O-])cc1Cl)c1ccc(OC(F)F)c(OCC2CC2)c1` [Compound 263, (S)-3,5-dichloro-4-(2-(3-(cyclopropylmethoxy)-4-(difluoromethoxy)phenyl)-2-(2-(1,3-dioxo-3,4-dihydroisoquinolin-2(1H)-yl)acetoxy)ethyl)pyridine 1-oxide], for which the IC50 lay within 1 to 10 nM.
